Source: publication PMC7619385 (ACS infectious diseases, 2025)
Like-named read-outs stand apart in the source and are kept apart here.

Legend:
NLuc::LmxCLK1 = NLuc::LmxCLK1 (Leishmania mexicana, UniProt E9AMP2); assay: cell-based; type: cell-based; settings: for Target occupancy Run 1 / Target occupancy Run 2 / Target occupancy Average: 10 µM compound, tracer SV366, promastigotes; for Target occupancy Average: mean of two experiments
Protocol: All compounds were tested at a fixed concentration of 10 µM to enable direct comparison of their target occupancy in live cells.
Serially diluted probes (5 µL) were added to 85 µL of cells in culture media or 85 µL of purified protein. Final well volumes were adjusted to 100 µL with sterile Opti-MEM™ I Reduced Serum Medium (Thermo-Scientific) – for wells containing cells; or Kinase Buffer - for wells containing purified protein. For tracer displacement assays, samples were prepared as above, but final volume was brought to 100 µL by addition of vehicle or serially-diluted test compounds. Final DMSO concentration in these assays was 1%. […] Light emissions at 460+10 nm (BRET donor) and at 610+20 nm (BRET acceptor) were sequentially recorded (integration time = 0.5 s, gain = 3600) using a luminometer (BMG LABTECH Clariostar or Biotek Synergy HT). BRET values are reported in milli-BRET (mBRET) units (mBU), obtained by dividing the acceptor luminescence by the donor luminescence and multiplying the result by a factor of 1,000. BRET values were converted to blank-corrected probe occupancies (%) according to equation [1]: (1) Probeoccupancy(%)=X−Z/Y−Z×100 where X = mBRET value in the presence of the test compound and the probe, Y = mBRET value in the presence of probe only, and Z = mBRET value in the absence of probe and test compound. […]

LmxCLK1 = target: T1, LmxCLK1 (Leishmania mexicana, UniProt E9AMP2); assay: biochemical; type: binding
T1 sequence (E9AMP2 1-422): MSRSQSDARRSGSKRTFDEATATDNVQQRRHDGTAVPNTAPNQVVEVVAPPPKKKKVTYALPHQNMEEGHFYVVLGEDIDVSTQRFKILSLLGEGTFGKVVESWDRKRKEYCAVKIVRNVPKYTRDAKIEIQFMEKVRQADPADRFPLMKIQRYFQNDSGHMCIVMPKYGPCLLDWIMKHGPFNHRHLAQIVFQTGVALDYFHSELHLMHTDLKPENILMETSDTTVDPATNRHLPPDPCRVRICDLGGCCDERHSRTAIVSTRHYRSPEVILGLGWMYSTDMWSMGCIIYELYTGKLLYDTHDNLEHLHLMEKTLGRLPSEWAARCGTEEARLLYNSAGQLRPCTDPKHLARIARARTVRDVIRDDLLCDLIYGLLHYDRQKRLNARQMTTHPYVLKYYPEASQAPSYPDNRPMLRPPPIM

[1] = read-out: Target occupancy Average
[2] = read-out: Target occupancy Run 1
[3] = read-out: Target occupancy Run 2
[4] = DSF, 10 µM compound, 2 µM LmxCLK1, Run 1, read-out: ΔTm Run 1
[5] = DSF, 10 µM compound, 2 µM LmxCLK1, Run 2, read-out: ΔTm Run 2
[6] = DSF, 10 µM compound, 2 µM LmxCLK1, mean of two runs, read-out: ΔTm Average
[7] = DSF, 10 µM compound, 2 µM LmxCLK1, Run 1
[8] = DSF, 10 µM compound, 2 µM LmxCLK1, Run 2
[9] = DSF, 10 µM compound, 2 µM LmxCLK1, mean of two runs

| Structure (SMILES) | receptor occupancy at 10 µM (NLuc::LmxCLK1; [1]) [%] | receptor occupancy at 10 µM (NLuc::LmxCLK1; [2]) [%] | receptor occupancy at 10 µM (NLuc::LmxCLK1; [3]) [%] | ΔTm at 10 µM (LmxCLK1; [4]) [°C] | ΔTm at 10 µM (LmxCLK1; [5]) [°C] | ΔTm at 10 µM (LmxCLK1; [6]) [°C] | Target occupancy Run 1 (NLuc::LmxCLK1) [%] | Target occupancy Run 2 (NLuc::LmxCLK1) [%] | Target occupancy Average (NLuc::LmxCLK1) [%] | ΔTm Average (LmxCLK1) | ΔTm Run 1 (LmxCLK1) | ΔTm Run 2 (LmxCLK1) [°C] | ΔTm Run 1 (LmxCLK1; [7]) [°C] | ΔTm Run 2 (LmxCLK1; [8]) [°C] | ΔTm Average (LmxCLK1; [9]) [°C] |
| --- | --- | --- | --- | --- | --- | --- | --- | --- | --- | --- | --- | --- | --- | --- | --- |
| Cn1cnc(N)c2ncnc1-2 [3-Methyladenine] | -2.2 | 2.8 | -7.1 | 0.2 | 0 | 0.1 |  |  |  |  |  |  |  |  |  |
| N#Cc1c(O)c2c(-c3ccc(-c4ccccc4O)cc3)csc2[nH]c1=O [A-769662] |  |  |  |  |  |  | 1.2 | -1.3 | 0.0 | -0.1 | -0.1 | 0 |  |  |  |
| N#C/C(=C/c1ccc(O)c(O)c1)C(=O)NCc1ccccc1 [AG-490 (Tyrphostin B42)] |  |  |  |  |  |  | -25.0 | -10.6 | -17.8 |  |  |  | 0.1 | 0.2 | 0.1 |
| C=CC(=O)Nc1ccc2ncnc(Nc3ccc(OCc4cccc(F)c4)c(Cl)c3)c2c1 [AST-1306] | -9.2 | -7.7 | -10.7 | -0.1 | -0.4 | -0.2 |  |  |  |  |  |  |  |  |  |
| O=C(NC1CCNCC1)c1[nH]ncc1NC(=O)c1c(Cl)cccc1Cl [AT7519] | -13.8 | 6.4 | -34 | 0.4 | 0.5 | 0.4 |  |  |  |  |  |  |  |  |  |
| N[C@@H]1CCCN(c2c(/C=C3\SC(=O)NC3=O)cccc2-c2ccccc2)C1 [AZD1208] |  |  |  |  |  |  | 5.0 | -7.9 | -1.4 |  |  |  | 0.1 | -0.4 | -0.1 |
| CNC(=O)c1cccc(-c2ccc3c(N4CCOC[C@@H]4C)nc(N4CCOC[C@@H]4C)nc3n2)c1 [AZD2014] | -1.4 | 8.9 | -11.6 | 0.3 | -0.3 | 0 |  |  |  |  |  |  |  |  |  |
| COc1cc(N2CCC(N)CC2)ccc1Nc1ncc(Cl)c(-c2c[nH]c3ccccc23)n1 [AZD3463] |  |  |  |  |  |  | 8.0 | -12.9 | -2.4 |  |  |  | 0.6 | 0.3 | 0.4 |
| N#CC1(c2ccc(NC(=O)c3cccnc3NCc3ccncc3)cc2)CCCC1 [Apatinib] | -8.5 | -9.2 | -7.8 | -0.2 | -0.4 | -0.3 |  |  |  |  |  |  |  |  |  |
| C[C@H]1[C@H](C)CC[C@]2(C(=O)O)CC[C@]3(C)C(=CC[C@@H]4[C@@]5(C)C[C@@H](O)[C@H](O)[C@@](C)(CO)[C@@H]5CC[C@]43C)[C@H]12 [Asiatic Acid] | -4.4 | 8.6 | -17.4 | 0.2 | 0.1 | 0.2 |  |  |  |  |  |  |  |  |  |
| Cc1ccc(S(=O)(=O)/C=C/C#N)cc1 [BAY 11-7082] |  |  |  |  |  |  | -17.1 | -14.7 | -15.9 |  |  |  | -0.4 | -0.2 | -0.3 |
| CN(C)Cc1cccc(N/C(=C2\C(=O)Nc3cc(C(N)=O)ccc32)c2ccccc2)c1 [BIX 02188] | -6.5 | 4.1 | -17 | 0.1 | -0.2 | 0 |  |  |  |  |  |  |  |  |  |
| Cc1ccc2nc(NCCN)c3ncc(C)n3c2c1 [BMS-345541] | -1.1 | 7.2 | -9.4 | -0.1 | -0.3 | -0.2 |  |  |  |  |  |  |  |  |  |
| COc1cc(Nc2c(C#N)cnc3cc(OCCCN4CCN(C)CC4)c(OC)cc23)c(Cl)cc1Cl [Bosutinib (SKI-606)] |  |  |  |  |  |  | 7.7 | -36.0 | -14.2 |  |  |  | 0.5 | 0.6 | 0.5 |
| O=C(/C=C/c1ccc(O)c(O)c1)c1ccc(O)cc1O [Butein] | -10.8 | 3.3 | -25 | 0 | 0.4 | 0.2 |  |  |  |  |  |  |  |  |  |
| CC[C@H](Nc1ncnc2[nH]cnc12)c1nc2cccc(F)c2c(=O)n1-c1ccccc1 [CAL-101 (Idelalisib)] |  |  |  |  |  |  | 0.2 | 0.1 | 0.1 |  |  |  | -0.2 | -0.2 | -0.2 |
| O=C1NC(=O)C(=Cc2ccc(-c3ccc(F)cc3)o2)S1 [CAY10505] |  |  |  |  |  |  | -12.3 | 10.0 | -1.2 |  |  |  | 0.1 | -0.1 | 0.0 |
| COc1cc2ncnc(Oc3cccc(NC(=O)Nc4cc(C(C)(C)C(F)(F)F)on4)c3)c2cc1OC [CEP-32496] | -3.7 | -2.2 | -5.2 | -0.4 | -0.2 | -0.3 |  |  |  |  |  |  |  |  |  |
| C=CC(=O)Nc1cccc(Nc2nc(Nc3ccc(Oc4ccnc(C(=O)NC)c4)cc3)ncc2F)c1 [CNX-774] |  |  |  |  |  |  | -4.4 | -9.3 | -6.8 |  |  |  | -0.3 | 0.0 | -0.2 |
| CN1CCCN(C(=O)c2cccc(-c3ccc(/C=C4/C(=O)Nc5ccc(Cl)cc54)o3)c2)CC1.Cl [CX-6258 HCl] |  |  |  |  |  |  | -0.5 | -26.8 | -13.6 |  |  |  | 0.1 | -0.4 | -0.1 |
| CC(C)(C)c1nc(-c2cccc(NS(=O)(=O)c3c(F)cccc3F)c2F)c(-c2ccnc(N)n2)s1 [Dabrafenib (GSK2118436)] |  |  |  |  |  |  | 0.7 | -7.9 | -3.6 |  |  |  | -0.2 | 0.0 | -0.1 |
| COc1cc2ncnc(Nc3ccc(F)c(Cl)c3)c2cc1NC(=O)/C=C/CN1CCCCC1 [Dacomitinib (PF299804)] |  |  |  |  |  |  | 1.4 | -14.2 | -6.4 |  |  |  | -0.4 | -0.5 | -0.4 |
| Cc1nc(Nc2ncc(C(=O)Nc3c(C)cccc3Cl)s2)cc(N2CCN(CCO)CC2)n1 [Dasatinib] | -14.6 | 1.5 | -30.7 | -0.1 | -0.2 | -0.1 |  |  |  |  |  |  |  |  |  |
| Cn1cc(C2=C(c3cn(C4CCN(Cc5ccccn5)CC4)c4ccccc34)C(=O)NC2=O)c2ccccc21 [Enzastaurin (LY317615)] |  |  |  |  |  |  | 2.6 | -1.9 | 0.3 |  |  |  | 0.1 | -0.2 | 0.0 |
